From patent US6020336A, “Indole and indazole compounds” (priority 1997, dated 2000)
Where a name gives a salt, the structure may show the parent alone.

Legend:
[1] = test system: saphenous vein of rabbits; assay: Contraction of the saphenous vein isolated from rabbit; details: Oryctolagus cuniculus, rabbit saphenous vein rings; for Emax: % relative to the maximum effect induced by KCl (100 mM), read-out: maximum response (contraction of the saphenous vein); for EC50: cumulative doses 10^-9 to 10^-4 M, 37° C., tension as % of KCl maximum
Description: (§1) The activity of the compounds of the invention has been evaluated in a pharmacological test that measures their potential for contracting the saphenous vein isolated from a dog or rabbit, as described by Humphrey et al. (Br. J. Pharmacol., 94, 1123, 1988).
(§2) The test are carried out on saphenous veins of dogs (10-25 kg) or of rabbits (2-3 kg) which have ben anaesthetised with pentobarbital (30 mg/kg i.v.). The saphenous veins are removed quickly and cut into rings. The rings are mounted between two hooks in vessels maintained at 37° C. containing physiological saline (composition in mM:NaCl 118.3; KCl 4.7; CaCl2 2.5; MgSO4 1.2; KH2 PO4 1.2; NaHCO3 25.0; Ca-EDTA 0.026 and glucose 11.1).
(§3) A mixture of 95% O2 --5% CO2 is bubbled through the physiological saline solution. The lower hook consists of the fixed point whilst the upper hook is connected to an isometric force sensor. The tissues are subjected to a base tension of 1.5 grammes (dog) and of 1 gramme (rabbit). The test pharmacological substances are prepared immediately prior to use; they are solubilised in water or in dimethyl sulphoxide.
(§4) After being mount, the preparations are left to rest for 60 minutes, rinsing operations being carried out every 30 minutes. The organ is then placed in the presence of phenoxybenzamine (5×10^-8 M) for 20 minutes. That agent is eliminated by a number of successive washing operations over the course of 45 minutes. After readjustment of the base tension, contraction is brought about by KCl (100 mM). After washing and return to the base line, contraction is induced by 5-hydroxytryptamine (10^-5 M).
(§5) After washing and return to the base line, a dose/response curve for the pharmacological substances is produced by the addition of cumulative doses (10^-9 to 10^-4 M).
(§6) The test enables the 50% effective concentration (EC50) of the compounds of the invention to be determined.
The EC50 is calculated in the following manner: the tension values are first converted into percentages relative to the maximum effect induced by KCl. The effective concentration 50% (ED50) is determined by non-linear regression according to the model of the law of mass action of Michaelis-Menten.

saphenous vein of dogs = assay: Contraction of the saphenous vein isolated from dog; details: Canis lupus familiaris, dog saphenous vein rings
Description: as §1, §2, §3, §4, §5, §6
The EC50 is calculated in the following manner: the tension values are first converted into percentages relative to the maximum effect induced by KCl. […]

EC50 [1] | EC50 (saphenous vein of dogs; cumulative doses 10^-9 to 10^-4 M, 37° C., tension as % of KCl maximum) | Compound | Emax [1] | Emax at 100 µM (saphenous vein of dogs; 100 μM, % relative to the maximum effect induced by KCl (100 mM), read-out: maximum contraction at a concentration of 100 μM) | Emax (saphenous vein of dogs; % relative to the maximum effect induced by KCl (100 mM), read-out: maximum response (contraction of the saphenous vein))
300 nM | – | COc1cncnc1N1CCN(CCCn2ccc3ccc(-n4cnnc4)cc32)CC1 [Example 5, 1-{3-[4-(5-Methoxypyrimidin-4-yl)piperazin-1-yl]propyl}-6-([1,2,4]-triazol-4-yl)indole dihydrochloride] | 75% | 6% | –
120 nM | 170 nM | CN(C)CCn1ncc2ccc(-n3cnnc3)cc21 [Example 6, 1-(Dimethylaminoethyl)-6-([1,2,4]triazol-4-yl)indazole dihydrochloride] | 87% | – | 47%
